US5972998A, “Triptolide derivatives useful in the treatment of autoimmune diseases” (priority 1998, dated 1999)
≈ marks a conversion by molar mass, not a printed value. Like-named read-outs stand apart in the source and are kept apart here.

How the values were obtained:
[1] = administered in conjunction with another immunosuppressive agent; WO 94/26265; cited from earlier work
IL-2 = test: Interleukin-2 assay (IL-2 production, ELISA, PHA/TPA-stimulated cells); type: cell-based; conditions: Jurkat E6-1 cells or human blood lymphocytes, PHA 10 μg/mL + TPA 10^-8 M, 16-24 hours
Description: (§1) Jurkat E6-1 cell line (ATCC), a human leukemic T cell line or lymphocytes prepared from fresh human blood, are grown in complete culture medium consisting of RPMI-1640 (Mediatech) supplemented with 10% v/v fetal bovine serum (HyClone, Logen, Vt.), penicillin (100 units/mL), streptomycin ([…]), and 2 mM L-glutamine (GIBCO, Grand Island, N.Y.). The cells are grown to a concentration of between 1.2 to 1.8×10^6 cells/mL before use. The cells are then centrifuged at low speed and resuspended to a concentration of 1.25×10^6 cells/mL in fresh medium.
(§2) The compounds to be tested are dissolved in DMSO, and water is added to make a 50% DMSO/water solution. The compounds are then diluted in sterile water such that the DMSO concentrations are less then 0.05%. The cells at a concentration of 1.25×10^6 cells/mL are stimulated with phytohemagglutinin 10 μg/mL (PHA) and 10^-8 M phorbol ester (12-O-tetradecanoylphorbol 13-acetate: TPA), (Sigma, St. Louis, Mo.). The compounds are then added and the cells are plated in flat-bottom tissue culture plates (Falcon, Lincoln Park, N.J.), with 250,000 cells/well. Plates are then incubated at 37° C. under an atmosphere of 5% CO2.
(§3) After incubation (16-24 hours), the cells are assayed for IL-2 production and cell viability (MTT). IL-2 production is assayed utilizing a solid phase ELISA immunoassay, sold in kit form by R&D Systems, Inc., Minneapolis, Minn.

[2] = test system: Jurkat E6-1 cell line (ATCC), a human leukemic T cell line or lymphocytes prepared from fresh human blood; test: Cell viability (mitochondrial enzyme assay, MTT); type: cell-based; conditions: after 16-24 hours incubation
Description: as §1, §2, §3
Cell viability is measured by the use of a mitochondrial enzyme assay. After removal of the supernatant for the IL-2 assay, Cell Titer 96 (a commercial solution of MTT available from Promega, Madison, Wis.) is added to the plates and incubated for 4 hours at 37° C. A solubilization solution is then added and incubated overnight. The plates are then read on an ELISA plate reader at a wavelength of 570 nm. Table II presents the results for the lnterleukin-2 assay, the cell viability assay and the ratio of cell viability/IL-2 inhibition.

[3] = test system: adjuvant-induced arthritis; test: Anti-inflammatory activity in the rat model of adjuvant-induced arthritis; type: in vivo, rat (male Wistar-Lewis); conditions: 12 consecutive days, day 18
Description: Anti-inflammatory Activity in the Rat Model of Adjuvant-induced Arthritis
(§4) Following generally the procedure of Pearson and Wood, Arth. Rheum., 2, 44 (1959), the anti-inflammatory activity of the following compounds was determined in a rat model of adjuvant-induced arthritis. Male Wistar-Lewisrats (Mollegaard, Breeding Centre Ltd, BIBY, DK 4623 LI, SKENSVED, P.P. Box 28, DK) with a body weight between 160 g and 200 g are used. Freund's adjuvant (0.1 mL, 6 mg Mycobacterium smegmatis suspension per mL in heavy white paraffin oil, Merck/Darmstadt) was injected into the base of the tail. Between day 10 and day 14 of the test, immunopathological processes lead to chronic inflammation, especially in the form of arthritic and periarthritic symptoms in all parts of the body. The animals received standardized food Altromin-R (Altrogge, Lage) and had free access to water. The compounds were administered i.p. (suspension in a carboxymethyl cellulose solution in an injection volume of 0.5 mL/100 g body weight) on 12 consecutive days, starting with the day of the adjuvant injection. On day 1 and day 18 of the study, the volume to of both hind paws and the body weight were recorded, and in addition on day 18 the arthritis index. Cyclosporin A and Prednisolone were used as standard compounds. In addition, table IV presents the percent change in body weight (weight gain) between day 1 and day 21 of the above test.

[4] = type: in vivo, rat (male Wistar-Lewis); conditions: weight gain between day 1 and day 21
Description: as §4

lymphocyte = conditions: Yang, et al., 1992 and 1994; cited from earlier work
skin allograft rejection = conditions: Yang, et al., 1992 and 1994; cited from earlier work

Molecule: C[C@@H](CO)[C@]12O[C@H]1[C@@H]1O[C@]13[C@]1(O[C@H]1C[C@H]1C4=C(CC[C@@]13C)C(=O)OC4)[C@@H]2O [16-hydroxytriptolide, 16-Hydroxytriptolide]
- immunosuppressive activity relative to the sum of the effects of either agent alone [1]: increase in immunosuppressive activity relative to the sum of the effects

Molecule: CC(C)[C@]1(O)C=C[C@@]2(O)[C@@]3(C)CCC4=C(COC4=O)C3CC[C@@]2(O)[C@@H]1O (stereo partly drawn) [Example 2, [5aR-(5aα,6α,7β,9aα,9bα)]-3b,4,5,5a,6,7,9a,9b,10,11-decahydro-5a,6,7,9a-tetrahydroxy-9b-methyl-7-(1-methylethyl)-phenanthro[1,2-c]furan-1(3H)-one]
- IC50 /IL-2 (IL-2): 14 ng/mL
- IC50 /MTT [2]: 90 ng/mL (≈ 0.247 µM)
- % Inhibition ([3]; 2 mg/kg/day i.p.): 83%
- % Inhibition ([3]; 4 mg/kg/day i.p.): 72%
- % Change in Body Weight ([4]; 2 mg/kg/day i.p.): 18.3%
- % Change in Body Weight ([4]; 4 mg/kg/day i.p.): 24.1%

Molecule: CC(C)[C@]12O[C@H]1[C@@H]1O[C@]13[C@]1(O[C@H]1C[C@H]1C4=C(CC[C@@]13C)C(=O)OC4)[C@@H]2O [Triptolide, triptolide]
- IC50 /MTT [2]: 5 ng/mL (≈ 0.0139 µM)
- suppress lymphocyte proliferation (lymphocyte): suppress lymphocyte proliferation
- suppress skin allograft rejection (skin allograft rejection): suppress lymphocyte proliferation and skin allograft rejection

Molecule: Cyclosporin A [reference compound]
- % Inhibition ([3]; 10 mg/kg/day i.p.): 100%
- % Change in Body Weight ([4]; 10 mg/kg/day i.p.): 27.2%

Molecule: [5R-(5α,5aβ,6β,7α,9aβ,9bβ)]-3b,4,5,5a,6,7,9a,10,11-decahydro-5a,6,9a-trihydroxy-9b-methyl-7-(1-methylethyl)-5,7-epoxyphenanthro[1,2-c]furan-1(3H)-one [Example 3]
- IC50 /IL-2 (IL-2): 500 ng/mL
- IC50 /MTT [2]: > 1,000 ng/mL

Molecule: [5aS-(5aα,5bα,8β,9α,9aR*,10aβ)]-4,5a,5b,8,9,10a,11,11a-octahydro-5b,8,9-trihydroxy-5a-methyl-8-(1-methylethyl)-1H-oxireno[8a,9]phenanthro[1,2-c]furan-3(5)-one [Example 1]
- IC50 /IL-2 (IL-2): 1,000 ng/mL
- IC50 /MTT [2]: > 1,000 ng/mL
